{"source": "patent US20240277861A1", "about": "“ANTI-HEPATITIS B VIRUS AGENT TARGETING HOST FACTOR LIPG” (PUROTECH BIO, INC., priority 2021, published 2024)", "molecules": {"B1": {"name": "LIPG (500 aa, MW: 56.8 kDa) (protein)", "chain": "SPVPFGPEGRLEDKLHKPKATQTEVKPSVRFNLRTSKDPEHEGCYLSVGHSQPLEDCSFNMTAKTFFIIHGWTMSGIFENWLHKLVSALHTREKDANVVVVDWLPLAHQLYTDAVNNTRVVGHSIARMLDWLQEKDDFSLGNVHLIGYSLGAHVAGYAGNFVKGTVGRITGLDPAGPMFEGADIHKRLSPDDADFVDVLHTYTRSFGLSIGIQMPVGHIDIYPNGGDFQPGCGLNDVLGSIAYGTITEVVKCEHERAVHLFVDSLVNQDKPSFAFQCTDSNRFKKGICLSCRKNRCNSIGYNAKKMRNKRNSKMYLKTRAGMPFRVYHYQMKIHVFSYKNMGEIEPTFYVTLYGTNADSQTLPLEIVERIEQNATNTFLVYTEEDLGDLLKIQLTWEGASQSWYNLWKEFRSYLSQPRNPGRELNIRRIRVKSGETQRKLTFCTEDPENTSISPGRELWFRKCRDGWRMKNETSPTVELP"}}, "key": {"HBV [1]": {"test_system": "HBV", "assay": "Anti-HBV activities of LIPG-binding peptides in HepG2-NTCP-C4 cells (plasmid transfection)", "format": "cell-based", "description": "(§1) SMI TEST™ M EX-R&D (Medical & Biological Laboratories) was used to extract DNA from the samples. The extracted DNA was used as a template for quantitative PCR of HBV-DNA. For cccDNA detection, the extracted DNA was treated with T5 exonuclease (New England Biolabs), and the resulting DNA was used as a template for quantitative PCR. The T5 exonuclease treatment was performed at 37° C. for 30 minutes, and the DNase was later inactivated by heating at 80° C. for 15 minutes. The following primer set was used for detection.\nCells were infected with HBV derived from HepG2.2.15 at 20,000 genome equivalents/cell, and plasmids carrying different peptides were transfected individually into the cells 12 to 15 days post infection using Lipofectamine 3000. Samples were collected 3 to 5 days after transfection for evaluation of HBV-DNA, cccDNA, pgRNA, and the like.\nFor the clones positive in the pull-down experiment against full-length LIPG, the anti-HBV activities of the LIPG peptides were evaluated in HepG2-NTCP-C4 cells (FIG. 17). A secretion signal is added to a plasmid carrying each peptide. Therefore, the peptides are expected to be secreted from cells transfected with the plasmids and to bind to LIPG in the extracellular environment. […] Moreover, the copy number of cccDNA was reduced by almost all the clones."}, "[2]": {"molecular_target": "T1, full-length form of LIPG (500 amino acids) (Homo sapiens, UniProt Q9Y5X9)", "T1 construct": "A pull-down assay was performed on the full-length form of LIPG (500 amino acids); made in house", "T1 sequence (Q9Y5X9 21-500)": "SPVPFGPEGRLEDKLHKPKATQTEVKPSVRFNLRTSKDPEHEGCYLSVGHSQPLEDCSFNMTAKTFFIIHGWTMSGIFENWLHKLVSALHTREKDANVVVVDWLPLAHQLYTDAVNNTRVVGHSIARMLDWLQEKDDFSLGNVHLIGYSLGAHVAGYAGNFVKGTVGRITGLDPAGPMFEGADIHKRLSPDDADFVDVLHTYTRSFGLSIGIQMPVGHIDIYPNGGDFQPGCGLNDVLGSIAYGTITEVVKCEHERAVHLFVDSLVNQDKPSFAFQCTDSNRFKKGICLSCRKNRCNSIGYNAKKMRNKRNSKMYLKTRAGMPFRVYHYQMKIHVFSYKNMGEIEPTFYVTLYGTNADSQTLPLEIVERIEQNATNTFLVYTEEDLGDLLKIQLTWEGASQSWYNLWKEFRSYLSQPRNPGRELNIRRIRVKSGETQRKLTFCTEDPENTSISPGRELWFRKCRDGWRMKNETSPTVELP", "assay": "Pull-down assay of LIPH4 peptides against full-length LIPG", "format": "binding", "details": "culture supernatant of transfected 293T cells, compared with no bait", "description": "Human embryonic kidney 293T cells were cultured in DMEM (1.0 g/l glucose) with L-Gln and Sodium Pyruvate, liquid (Nacalai) supplemented with 10% FCS ([…]). Plating was performed in a 1:2 ratio on 6 cm dishes 24 hours before transfection. Lipofectamine 2000 in a volume of 20 μl was added to 500 μl of Opti-MEM 1 and allowed to stand for 5 minutes at room temperature, and the resulting mixture was gently added to a 6 cm dish containing a mixture of 500 μl of Opti-MEM 1 and 8 μg of a plasmid DNA. The resulting mixture was allowed to stand for 20 minutes at room temperature, and then added to a 6 cm dish containing 293T cells, and the cells were cultured at 37° C. in 5% CO2 for 4 to 6 day.\nResin (Streptavidin MagneSphere Paramagnetic Particles) (Promega) was washed using the MagneSphere Technology Magnetic Separation Stand (tweleve-position). The resin in a volume of 40 μl was added to each 1.5 ml tube, and after removal of the solution, washed three times with 1 ml of PBS. The resin was transferred to new tubes and mixed with 0.5 nmol (109 μl) of LIPG-BioFLAGHis or with 109 μl of PBS as a no bait control, and the resulting mixtures were agitated at 4° C. for 1 hour by rotation on a mini-disk rotor (BIO CRAFT) to allow binding. After removal of the solution, the resin was washed three times with 1 ml of TBST (containing 0.05% Tween 20). The resin was transferred to new tubes, blocked with 1 ml of ELISA BSA buffer (TBS, 0.05%, Tween 20, 1% BSA. Nacalai Tesque, Inc.) at 4° C. for 1 hour, and then washed three times with 1 ml of ELISA BSA buffer. The resin was transferred to new tubes, and 1000 μl of the culture supernatant containing expressed KIgk-LIPH4 was mixed with […] of the resin treated with LIPG-BioFLAGHis or without the bait, and the resulting mixtures were agitated at 4° C. for 1 hour and 30 minutes by rotation on a mini-disk rotor (BIO CRAFT) to allow binding. After removal of the solution, the resin was washed three times with […] of TBST (Tween 20, 0.1%), and the recovered resin was used for Western blotting.\nEach resin was mixed with water and LDS sample buffer (4×), 0.2 mM DTT, heated at 70° C. for 10 minutes, and then subjected to SDS-PAGE. SDS-PAGE was performed using 4-12% Bis-Tris gel and NuPAGE MES-SDS electrophoresis buffer (Invitrogen) at 200 V and 400 mA for 35 minutes. After electrophoresis, transfer was performed using Mini Format, 0.2-μm PVDF, Single-application (BIO-RAD) Trans-Blot Turbo. The membrane was blocked with a Blocking One Buffer: TBST (1:9) solution and reacted with an anti-Flag-HRP (Sigma: A8592) diluted 2:3000 in a Blocking One Buffer: TBST (1:9) solution. Detection was performed using ECL (Enhanced ChemiLuminescence) on a ChemiDoc (BIO-RAD).\nA pull-down assay was performed on the full-length form of LIPG (500 amino acids) with LIPH4 peptides (FIG. 16)."}, "HBV [3]": {"test_system": "HBV", "assay": "Anti-HBV activities of LIPG-binding peptides in PXB cells", "format": "cell-based", "details": "HBV-infected PXB cells", "description": "An infection source medium was prepared by adding the HBV-infected chimeric mouse serum (PhoenixBio), DMSO, and a PEG 8000 solution to the PXB cell culture medium (PhoenixBio) at final concentrations of 5 genome equivalents/cell, 2%, and 4%, respectively. Various synthesized peptides were diluted to different concentrations in this medium, and the resulting media were added individually to PXB cells (PhoenixBio). After the cells were left to stand in a 5% CO2 incubator at 37° C. for 20 to 28 hours, the medium was removed and the wells were washed once with PBS(−). DMSO and one of the various synthesized peptides were added to the PXB cell culture medium at a final concentration of 2% and different concentrations, respectively, and the resulting media were added individually to the PXB cells to perform medium exchange. This medium exchange was performed at 1, 5, and 9 days post infection and samples were collected at 14 days post infection.\nas §1\nPXB cells, fresh human liver cells isolated from PXB mice (human hepatocyte chimeric mice), are human liver cells that maintain human liver functions at high levels and allow persistent infection with hepatitis B virus (HBV). Therefore, PXB cells were used to evaluate the anti-HBV activities of LIPG-binding peptides. LIPG-binding peptides were chemically synthesized because they were added extracellularly (Eurofins Genomics K.K.). Clones that had shown excellent results in the studies of Examples 10 and 1 (KIgk-LIPH4-23, KIgk-LIPH4-74, KIgk-LIPH4-15, KIgk-L1l 14-2. KIgk-LIPH14-14. KIgk-LIPH4-87) were selected for chemical synthesis of the peptides. […] Therefore, LIPH4-NTNA and LIPH4-NTNB, which share a common sequence with netrins and consist of 16 amino acids, were also chemically synthesized. The chemically synthesized peptides were dissolved in DMSO for use in HBV assays in PXB cells.\nNext, the anti-HBV activity of full-length Netrin-1 was examined in PXB cells. A full-length human recombinant Netrin-1 protein consisting of 604 amino acid residues (molecular weight: 67.5 kDa, SEQ ID NO: 28) was purchased from R&D Systems. United States. A shRNA with the sequence […]ctcgagc[…] TTTTTTG (single underline: terminal sequences for cloning, lowercase letters: hairpin loop sequence) (SEQ ID NO: 64) was used to knock down the Netrin-1 gene."}, "[4]": {"format": "physicochemical", "text": "Therefore, peptides designed by reducing the number of amino acid residues in these two peptides to 8 (LIPH4-23s and LIPH4-NTNBs) were next chemically synthesized."}, "[5]": {"molecular_target": "T2, N4BP1 (NEDD4 Binding Protein 1)", "T2 chain": "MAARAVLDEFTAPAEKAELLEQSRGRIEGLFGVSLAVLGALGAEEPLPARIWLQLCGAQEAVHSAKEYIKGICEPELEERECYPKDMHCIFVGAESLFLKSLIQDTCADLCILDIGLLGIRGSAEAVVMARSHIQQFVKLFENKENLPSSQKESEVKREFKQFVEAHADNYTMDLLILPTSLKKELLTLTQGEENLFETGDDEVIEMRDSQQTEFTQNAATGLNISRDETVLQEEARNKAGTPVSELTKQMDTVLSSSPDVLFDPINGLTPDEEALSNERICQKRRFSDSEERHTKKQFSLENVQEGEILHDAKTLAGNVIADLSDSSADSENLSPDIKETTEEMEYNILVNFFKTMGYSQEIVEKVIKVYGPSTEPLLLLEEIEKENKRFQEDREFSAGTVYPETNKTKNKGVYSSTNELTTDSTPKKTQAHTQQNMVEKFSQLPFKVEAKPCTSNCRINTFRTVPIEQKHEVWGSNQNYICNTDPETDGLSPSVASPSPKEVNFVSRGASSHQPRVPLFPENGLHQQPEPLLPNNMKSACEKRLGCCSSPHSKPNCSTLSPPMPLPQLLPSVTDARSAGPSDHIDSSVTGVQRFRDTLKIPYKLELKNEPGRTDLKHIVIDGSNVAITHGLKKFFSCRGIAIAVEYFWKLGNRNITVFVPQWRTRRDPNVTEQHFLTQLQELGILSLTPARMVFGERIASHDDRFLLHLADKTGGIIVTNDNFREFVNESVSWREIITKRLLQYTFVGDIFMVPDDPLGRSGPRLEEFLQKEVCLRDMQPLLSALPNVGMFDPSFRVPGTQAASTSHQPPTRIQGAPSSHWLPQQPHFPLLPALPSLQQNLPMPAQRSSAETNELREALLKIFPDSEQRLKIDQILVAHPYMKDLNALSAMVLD"}}, "note": "Residues, ends and D or L forms follow the SMILES beside them."}
{"molecule": "LNCRDNTRPVMSAMTC [KIgk-LIPH4-23]", "values": [{"measurement": "copy number of HBV-DNA", "setting": "HBV [1]; vs control", "value": "reduced the copy number of HBV-DNA to near zero"}, {"measurement": "binding to LIPG in pull-down assay", "setting": "[2]", "value": "positive"}]}
{"molecule": "LNCRDNTRPVMSAMTC (LIPH4-23)", "values": [{"measurement": "anti-HBV activity", "setting": "HBV [1]", "value": "remarkable anti-HBV activity"}, {"measurement": "anti-HBV activity (effect to reduce HBV DNA and cccDNA copy numbers)", "setting": "HBV [3]", "value": "high anti-HBV activity"}]}
{"molecule": "CC(C)C[C@H](N)C(=O)N[C@@H](CC(N)=O)C(=O)N[C@@H](CS)C(=O)N[C@@H](CCCNC(=N)N)C(=O)N[C@@H](CC(=O)O)C(=O)N[C@@H](CC(N)=O)C(=O)N[C@H](C(=O)N[C@@H](CCCNC(=N)N)C(=O)O)[C@@H](C)O", "note": "[LIPH4-23s] (H-LNCRDNTR-OH; N-terminus and C-terminus assumed)", "values": [{"measurement": "solubility in PBS", "setting": "[4]", "value": "soluble in PBS (water soluble)"}]}
{"molecule": "C[C@H](NC(=O)[C@@H](NC(=O)[C@H](CC(N)=O)NC(=O)[C@H](Cc1c[nH]cn1)NC(=O)[C@H](CCCNC(=N)N)NC(=O)[C@H](CS)NC(=O)[C@@H](N)CC(N)=O)[C@@H](C)O)C(=O)NCC(=O)O", "note": "[LIPH4-NTNBs] (H-NCRHNTAG-OH; N-terminus and C-terminus assumed)", "values": [{"measurement": "solubility in PBS", "setting": "[4]", "value": "soluble in PBS (water soluble)"}]}
{"molecule": "B1", "values": [{"measurement": "degradation of a 1203-base HBV L protein RNA by N4BP1 (RNase activity), agarose gel", "setting": "[5]", "value": "the degradation of the RNA was suppressed in the presence of LIPG by binding of LIPG to N4BP1"}]}
